Tests used:
[1] = system: LNCaP cells; test: Antiproliferation screen assay, resazurin, 72 h; format: cell-based, human; conditions: 50 μM
Description: In this screen, we examined the growth inhibitory effects of all synthesized KKRs on the three human PCa cell lines LNCaP, DU145, and PC3. The antiproliferative clinical drug TAX of 0.25 μM was used as a positive control. Additionally, different standards of MAO-Is and FLUT were tested for their effect on the LNCaP cells. Briefly, the procedures and materials used were the same as for the viability assay except for the following—cultured cells were seeded at 10,000 cells/175-µL/well related experimental media, and the resazurin solution was added after 72 h of incubation with the compounds of 50 μM each.

[2] = system: LNCaP cells; test: Antiproliferation screen assay, resazurin, 72 h; format: cell-based, human; conditions: 10 μM

Structure (SMILES)	antiproliferative effect in screen [1]	antiproliferative effect of clinical standards [2]
O=C(/C=C/c1ccccc1)c1cc(Cl)c(Cl)cc1O [KKR23, (E)-1-(4,5-dichloro-2-hydroxyphenyl)-3-phenylprop-2-en-1-one]	top five KKRs that kept standing out with antiproliferative effects	–
CC(C)C(=O)Nc1ccc([N+](=O)[O-])c(C(F)(F)F)c1 [FLUT, flutamide]	–	none of the standards showed a significant antiproliferative effect
O=C(/C=C/c1ccc2c(c1)OCO2)c1cc(Cl)cc(Cl)c1O [KKR18, (E)-3-(benzo[d][1,3]dioxol-5-yl)-1-(3,5-dichloro-2-hydroxyphenyl)prop-2-en-1-one]	top five KKRs that kept standing out with antiproliferative effects	–
C#CCN(C)[C@H](C)Cc1ccccc1.Cl [DEP, (R)-(−)-deprenyl HCl]	–	none of the standards showed a significant antiproliferative effect
